Key:
Format in all cases: in vivo
[1] = test system: Scirpus juncoides; test: Test Example 1: herbicidal activity, application before weed generation in submerged conditions (symbol B); conditions: application herbicide amount 320 g/ha
Procedure, shortened: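 Greenhouse growth at 25–30 °C lasted 3 weeks after treatment, when each weed was graded 0–5 by herbicidal ratio. Treatment was a diluted emulsion applied to the water surface of 4 cm-submerged alluvial soil on the sowing day.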

[2] = test system: Scirpus juncoides; test: Test Example 2: herbicidal activity, application during weed generation in submerged conditions (symbol B); conditions: Table 23; application herbicide amount 320 g/ha; grade 0-5 by criteria of Test Example 1
Procedure, shortened: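 Treatment timing was the one- to two-leaf stage, with diluted emulsifiable compound dropped onto the paddy water (depth 4 cm) over alluvial soil. All three species grew from a mixed sowing in a 25° C. to 30° C. greenhouse. Injury was judged by eye 3 weeks on.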

[3] = test system: Galium spurium; test: Test Example 5: herbicidal effect by foliage application, plastic box (symbol Q); conditions: 320 g/ha, 3 weeks after application
Procedure, shortened: (§1)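 Herbicide, formulated as an emulsion and diluted in water, is sprayed onto the aerial parts of 14-day seedlings. These were grown at 25° C. to 30° C. in sterilized diluvial soil; effects are graded after 3 weeks.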

[4] = test system: Chenopodium album; test: Test Example 5: herbicidal effect by foliage application, plastic box (symbol O); conditions: 320 g/ha, 3 weeks after application
Procedure, shortened: as §1

[5] = test system: Veronica persica; test: Test Example 5: herbicidal effect by foliage application, plastic box (symbol R); conditions: 320 g/ha, 3 weeks after application
Procedure, shortened: as §1

[6] = test system: Amaranthus retroflexus; test: Test Example 4: herbicidal effect by soil treatment (symbol N); conditions: application herbicide amount 320 g/ha
Procedure, shortened: (§2)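 Seeds were sown in sterilized diluvial soil, covered with about 1.5 cm of soil, and the soil surface was sprayed with a water-diluted emulsion of the compound at a predetermined rate. Plants grew in a greenhouse at 25° C. to 30° C.; effects were scored visually 3 weeks after application.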

[7] = test system: Apera spica-venti; test: Test Example 5: herbicidal effect by foliage application, plastic box (symbol L); conditions: 320 g/ha, 3 weeks after application
Procedure, shortened: as §1

[8] = test system: Apera spica-venti; test: Test Example 4: herbicidal effect by soil treatment (symbol L); conditions: application herbicide amount 320 g/ha
Procedure, shortened: as §2

[9] = test system: Setaria viridis; test: Test Example 5: herbicidal effect by foliage application, plastic box (symbol G); conditions: 320 g/ha, 3 weeks after application
Procedure, shortened: as §1

[10] = test system: beet; test: Test Example 4: effect on crop by soil treatment (symbol f); conditions: application herbicide amount 320 g/ha
Procedure, shortened: (§3)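 Sterilized diluvial soil, spot sowing, ~1.5 cm soil cover; greenhouse 25–30° C.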

[11] = test system: beet; test: Test Example 5: effect on crop by foliage application, plastic box (symbol f); conditions: 320 g/ha, 3 weeks after application
Procedure, shortened: (§4)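 Plants were raised from seed in a greenhouse (25° C. to 30° C.) after sowing in a plastic box of sterilized diluvial soil.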

[12] = test system: Galium spurium; test: Test Example 4: herbicidal effect by soil treatment (symbol Q); conditions: application herbicide amount 320 g/ha
Procedure, shortened: as §2

[13] = test system: rapeseed; test: Test Example 4: effect on crop by soil treatment (symbol g); conditions: application herbicide amount 320 g/ha
Procedure, shortened: as §3

[14] = test system: Avena fatua; test: Test Example 5: herbicidal effect by foliage application, plastic box (symbol I); conditions: 320 g/ha, 3 weeks after application
Procedure, shortened: as §1

[15] = test system: soybean; test: Test Example 5: effect on crop by foliage application, plastic box (symbol d); conditions: 320 g/ha, 3 weeks after application
Procedure, shortened: as §4

[16] = test system: Avena fatua; test: Test Example 4: herbicidal effect by soil treatment (symbol I); conditions: application herbicide amount 320 g/ha
Procedure, shortened: as §2

[17] = test system: Echinochloa crus-galli var. crus-galli; test: Test Example 4: herbicidal effect by soil treatment (symbol H); conditions: application herbicide amount 320 g/ha
Procedure, shortened: as §2

[18] = test system: wheat; test: Test Example 4: effect on crop by soil treatment (symbol e); conditions: application herbicide amount 320 g/ha
Procedure, shortened: as §3

| Compound | Herbicidal effect grade, B: Scirpus juncoides [1] | Herbicidal effect grade, B: Scirpus juncoides [2] | Q: Galium spurium, herbicidal effect (criteria of Test Example 1) [3] | O: Chenopodium album, herbicidal effect (criteria of Test Example 1) [4] | R: Veronica persica, herbicidal effect (criteria of Test Example 1) [5] | N: Amaranthus retroflexus, herbicidal effect grade [6] | L: Apera spica-venti, herbicidal effect (criteria of Test Example 1) [7] | L: Apera spica-venti, herbicidal effect grade [8] | G: Setaria viridis, herbicidal effect (criteria of Test Example 1) [9] | f: beet, effect on crop grade [10] | f: beet, effect on crop (criteria of Test Example 1) [11] | Q: Galium spurium, herbicidal effect grade [12] | g: rapeseed, effect on crop grade [13] | I: Avena fatua, herbicidal effect (criteria of Test Example 1) [14] | d: soybean, effect on crop (criteria of Test Example 1) [15] | I: Avena fatua, herbicidal effect grade [16] | H: Echinochloa crus-galli var. crus-galli, herbicidal effect grade [17] | e: wheat, effect on crop grade [18] | Herbicidal effect grade, N: Amaranthus retroflexus [6] | Herbicidal effect grade, L: Apera spica-venti [8] | other results |
| --- | --- | --- | --- | --- | --- | --- | --- | --- | --- | --- | --- | --- | --- | --- | --- | --- | --- | --- | --- | --- | --- |
| CON=C(C)CC1CC(O)=C(c2c(C)cc(-c3ccc(Cl)cc3)cc2OC)C1=O (stereo not drawn) [6-077, 2-(4′-chloro-3-methoxy-5-methyl-[1,1′-biphenyl]-4-yl)-3-hydroxy-5-{2-(methoxyimino)propyl}cyclopent-2-enone] | 3 (Herbicidal ratio of 40% or higher and lower than 70%) | 4 (Herbicidal ratio of 70% or higher and lower than 90%) | 4 (Herbicidal ratio of 70% or higher and lower than 90%) | 4 (Herbicidal ratio of 70% or higher and lower than 90%) | 4 (Herbicidal ratio of 70% or higher and lower than 90%) | 5 (Herbicidal ratio of 90% or more (almost completely withered)) | 5 (Herbicidal ratio of 90% or more (almost completely withered)) | 5 (Herbicidal ratio of 90% or more (almost completely withered)) | 5 (Herbicidal ratio of 90% or more (almost completely withered)) | 1 (Herbicidal ratio of 5% or higher and lower than 20%) | 4 (Herbicidal ratio of 70% or higher and lower than 90%) | 4 (Herbicidal ratio of 70% or higher and lower than 90%) | 4 (Herbicidal ratio of 70% or higher and lower than 90%) | 5 (Herbicidal ratio of 90% or more (almost completely withered)) | 2 (Herbicidal ratio of 20% or higher and lower than 40%) | 4 (Herbicidal ratio of 70% or higher and lower than 90%) | 5 (Herbicidal ratio of 90% or more (almost completely withered)) | 0 (Herbicidal ratio of 5% or lower (almost no effect)) | – | – | – |
| CON=C(C)CC1CC(OC(=O)CCCC(C)=O)=C(c2c(C)cc(-c3ccc(Cl)cc3)cc2C)C1=O (stereo not drawn) [6-080] | 1 (Herbicidal ratio of 5% or higher and lower than 20%) | 4 (Herbicidal ratio of 70% or higher and lower than 90%) | 4 (Herbicidal ratio of 70% or higher and lower than 90%) | 0 (Herbicidal ratio of 5% or lower (almost no effect)) | 4 (Herbicidal ratio of 70% or higher and lower than 90%) | 1 (Herbicidal ratio of 5% or higher and lower than 20%) | 5 (Herbicidal ratio of 90% or more (almost completely withered)) | 5 (Herbicidal ratio of 90% or more (almost completely withered)) | 5 (Herbicidal ratio of 90% or more (almost completely withered)) | 0 (Herbicidal ratio of 5% or lower (almost no effect)) | 0 (Herbicidal ratio of 5% or lower (almost no effect)) | 0 (Herbicidal ratio of 5% or lower (almost no effect)) | 0 (Herbicidal ratio of 5% or lower (almost no effect)) | 5 (Herbicidal ratio of 90% or more (almost completely withered)) | 1 (Herbicidal ratio of 5% or higher and lower than 20%) | 0 (Herbicidal ratio of 5% or lower (almost no effect)) | 5 (Herbicidal ratio of 90% or more (almost completely withered)) | 0 (Herbicidal ratio of 5% or lower (almost no effect)) | – | – | – |
| CON=C(C)CC1CC(O)=C(c2c(C)cc(-c3ccccc3)cc2OC)C1=O (stereo not drawn) [6-099] | 5 (Herbicidal ratio of 90% or more (almost completely withered)) | 5 (Herbicidal ratio of 90% or more (almost completely withered)) | 5 (Herbicidal ratio of 90% or more (almost completely withered)) | 5 (Herbicidal ratio of 90% or more (almost completely withered)) | 5 (Herbicidal ratio of 90% or more (almost completely withered)) | – | 5 (Herbicidal ratio of 90% or more (almost completely withered)) | – | 5 (Herbicidal ratio of 90% or more (almost completely withered)) | – | 4 (Herbicidal ratio of 70% or higher and lower than 90%) | – | – | 5 (Herbicidal ratio of 90% or more (almost completely withered)) | 4 (Herbicidal ratio of 70% or higher and lower than 90%) | – | – | – | 5 (Herbicidal ratio of 90% or more (almost completely withered)) | 5 (Herbicidal ratio of 90% or more (almost completely withered)) | Effect on crop grade, f: beet [10]: 2 (Herbicidal ratio of 20% or higher and lower than 40%); Herbicidal effect grade, Q: Galium spurium [12]: 3 (Herbicidal ratio of 40% or higher and lower than 70%); Effect on crop grade, g: rapeseed [13]: 5 (Herbicidal ratio of 90% or more (almost completely withered)); Herbicidal effect grade, I: Avena fatua [16]: 5 (Herbicidal ratio of 90% or more (almost completely withered)); Herbicidal effect grade, H: Echinochloa crus-galli var. crus-galli [17]: 5 (Herbicidal ratio of 90% or more (almost completely withered)); Effect on crop grade, e: wheat [18]: 5 (Herbicidal ratio of 90% or more (almost completely withered)) |
| CON=C(C)CC1CC(OC(=O)COc2ccccc2)=C(c2c(C)cc(-c3ccccc3)cc2OC)C1=O (stereo not drawn) [6-100] | 5 (Herbicidal ratio of 90% or more (almost completely withered)) | 5 (Herbicidal ratio of 90% or more (almost completely withered)) | 4 (Herbicidal ratio of 70% or higher and lower than 90%) | 4 (Herbicidal ratio of 70% or higher and lower than 90%) | 3 (Herbicidal ratio of 40% or higher and lower than 70%) | – | 5 (Herbicidal ratio of 90% or more (almost completely withered)) | – | 5 (Herbicidal ratio of 90% or more (almost completely withered)) | – | 0 (Herbicidal ratio of 5% or lower (almost no effect)) | – | – | 5 (Herbicidal ratio of 90% or more (almost completely withered)) | 3 (Herbicidal ratio of 40% or higher and lower than 70%) | – | – | – | 5 (Herbicidal ratio of 90% or more (almost completely withered)) | 5 (Herbicidal ratio of 90% or more (almost completely withered)) | Effect on crop grade, f: beet [10]: 0 (Herbicidal ratio of 5% or lower (almost no effect)); Herbicidal effect grade, Q: Galium spurium [12]: 1 (Herbicidal ratio of 5% or higher and lower than 20%); Effect on crop grade, g: rapeseed [13]: 5 (Herbicidal ratio of 90% or more (almost completely withered)); Herbicidal effect grade, I: Avena fatua [16]: 5 (Herbicidal ratio of 90% or more (almost completely withered)); Herbicidal effect grade, H: Echinochloa crus-galli var. crus-galli [17]: 5 (Herbicidal ratio of 90% or more (almost completely withered)); Effect on crop grade, e: wheat [18]: 3 (Herbicidal ratio of 40% or higher and lower than 70%) |

From US11000033B2, “Ketone or oxime compound, and herbicide” (NISSAN CHEMICAL CORPORATION, priority 2014, dated 2021)
